Reference: PMC8662950, “Quantitative Determination and Toxicity Evaluation of Aristolochic Acid Analogues in Asarum heterotropoides F. Schmidt (Xixin) and Traditional Chinese Patent Medicines” (Frontiers in Pharmacology, 2021)
Read-outs that look alike come from different tables or passages of the source.

Experiments:
[1] = tested on: HK-2 cells; assay: cells; type: cell-based, human; settings: for IC50: Homo sapiens; for Cell viability: HK-2, 1,000 μM, 24 or 48 h
Method: Cytotoxicity analysis was determined using the Cell Counting kit 8 (CCK8) (Bioss, China). HK-2 was cultured in DMEM/F12 (containing 10% fetal bovine serum, 100 U/ml penicillin, and 100 μg/ml streptomycin; Gibco, Invitrogen) at 37°C in 5% carbon dioxide incubator. The cells were maintained at 80% confluency and the medium was replaced every 3 days for routine cultivation. HK-2 cells (8,000 cells/well) were seeded in 96-well plates overnight. The cells were then treated with analogues of AA for 24 or 48 h at different concentrations (6.8, 27.0, 54.0, 108.0, 216.0, and 432.0 μM for AA I; 12.5, 25.0, 100.0, 200.0, 400.0, and 800.0 μM for AA II; 15.6, 62.5, 125.0, 250.0, 500.0, and 1000.0 μM for AA IIIa; 15.6, 31.3, 62.5, 125.0, 500.0, and 1,000.0 μM for AA IVa; 8.0, 16.0, 32.0, 64.0, 128.0, and 256.0 μM for AL I). Subsequently, the cells were incubated with 10% CCK8 solution for another 2 h. […] The absorbance (OD) of each well was measured with a spectrophotometer (Spark; Tecan, Switzerland) at 450 nm and the IC50 values were obtained by fitting the curve through nonlinear regression with GraphPad Prism 7.0 (GraphPad Software, CA, United States).

[2] = tested on: renal cells of ICR mice; assay: Comet assay (DNA damage), renal cells; type: in vivo; settings: EMS 577.6 mg/kg; for Kidney Olive Tail Moment / Kidney Tail DNA%: AA analogues 20.0 mg/kg, three consecutive days, 5 animals/group, 100 cells; for DNA damage in renal cells (comet shape): AA analogues 20 mg/kg, three days
Method: (§1) ICR mice were separated into seven groups (n = 5 for each group) and administrated with saline, EMS (577.6 mg/kg), AA I (20 mg/kg), AA II (20 mg/kg), AA IIIa (20 mg/kg), AA IVa (20 mg/kg), or AL I (20 mg/kg) for three consecutive days, respectively. After anesthetization and perfusion, renal and liver tissues were obtained. Comet analysis was performed 2–6 h after the last […] and the processes were according to Günter Speit ([Speit and Rothfuss, 2012]). The Comet Assay software project (CASP) (V1.2.3) was used to analyze the fraction of tail DNA and the Olive Tail Moment. A total of one hundred cells from kidney or liver tissues of each animal were analyzed. The mean, standard deviation (SD) of tail DNA%, and the median of olive tail moment were calculated. Results were analyzed using SPSS 17.0 by one-way analysis of variance (ANOVA) followed by the least significance difference (LSD) test. The significant differences between the groups were tested and defined by p-value < 0.05.
(§2) Mice (n=35) were randomly divided into seven groups, with 5 mice in each group. Then they were administered with normal saline (NS), ethyl methanesulfonate (EMS) (577.6 mg/kg), and aristolochic acid analogues (20.0 mg/kg) for three days, respectively. After the final administration, mice were perfused and euthanized to obtain the renal and liver tissues.
(§3) The removed renal and liver tissues were minced into pieces and dispersed with 10 mL DMEM high-sugar culture medium. The mixture was filtered through a 200-mesh sieve and centrifuged at 800 rpm for 5 min. The supernatant was discarded and the cells were resuspended and centrifuged again. Then the cells were cultured in DMEM containing 10% FBS.
(§4) 25 μL single-cell suspension (5000 cells) with 75 μL of 0.7% low melting point agarose gel were mixed and 100 μL of the mixture was dropped on the bottom layer of agarose gel. The prepared glass slides were stored in the refrigerator at 4℃ for 4 min, and then dipped into the alkaline cell lysates for 2 h at 4℃. Slides were removed and rinsed with PBS buffer for 3 times.
(§5) The alkaline electrophoresis buffer (pH 13.0) precooled at 4℃ was put into the electrophoresis tank. The tank was covered to avoid light and remained static at 4℃ for 20 min. The voltage was set at 0.8 V/cm, and the current was 300 mA during the electrophoreses.
(§6) After 20 min, the slides were removed and the excess salt was washed away. The slides were washed by 0.4 mol/L precooled Tris-HCl buffer for 5 min and then dehydrated by ethanol for 15 min. Then the slides were stained with 30 μL PI staining solution (2 μg/mL) in the dark for 15 s, and washed in water several times.
(§7) A fluorescence microscope was used for visualization of DNA damage. A total of 100 randomly selected cells from kidney or liver tissues were analyzed. Parameters such as tail DNA percentage and Olive Tail Moment were calculated by the Comet Assay Software Project (CASP, V1.2.3).

[3] = tested on: ICR mice; assay: In vivo acute toxicity, single oral gavage dose, 14 days; settings: for Histopathology of liver tissues: AA I 20 and 40 mg/kg; for Serum AST, ALT, ALP, TBIL, TBA, CREA, BUN vs control group: single oral dose, day 14, AA I at 20 and 40 mg/kg
Method: The animal experiments were approved by the Research Ethics Committee of the Institute of Chinese Materia Medica, China Academy of Chinese Medical Sciences (ICMM, CACMS). The experiment was carried out according to ethical guidelines and regulations for the use of laboratory animals. A total of 160 ICR mice were randomly divided into 16 groups, each comprising 10 mice (5 males and 5 females). The drugs were administered in a single dose by oral gavage and the dose volume was 0.2 ml/10 g. The control group was treated with 0.5% CMC-Na. Other groups received AA I, AA II, AA IIIa, AA IVa, or AL I, at concentrations of 10, 20, and 40 mg/kg, respectively. Animal weights were recorded every two days. The animals were fasted overnight before experiments and sacrificed on day 14. Blood samples were collected and centrifuged for 15 min at 3,500×g. AST, ALT, ALP, CREA, BUN, TBA, and TBIL levels in plasma were examined. SPSS 17.0 (IBM Corp., United States) was used for the statistical and significance analyses. The renal and liver tissues were embedded and stained with H&E. Histological images were obtained through Olympus BX63 (Olympus Corporation, Japan) at a magnification of ×200.

[4] = tested on: hepatocyte cells of ICR mice; assay: Comet assay (DNA damage), hepatocyte cells; type: in vivo; settings: EMS 577.6 mg/kg; for Liver Olive Tail Moment / Liver Tail DNA%: AA analogues 20.0 mg/kg, three consecutive days, 5 animals/group, 100 cells; for DNA damage in hepatocyte cells (comet shape): AA analogues 20 mg/kg, three days
Method: as §1, §2, §3, §4, §5, §6, §7

[5] = 10, 20, 40 mg/kg single oral dose, 14 days
[6] = 10, 20, 40 mg/kg single oral dose, male and female mice
[7] = 10, 20 mg/kg single oral dose, 14 days

Compound | IC50 ([1]; HK-2, 24 h, read-out: IC50) [µM] | IC50 ([1]; HK-2, 48 h, read-out: IC50) [µM] | Kidney Olive Tail Moment [2] [μm] | Kidney Tail DNA% [2] [%] | DNA damage in renal cells (comet shape) [2] | Nephrotoxicity or hepatotoxicity ([3]; 40 mg/kg) | Death [3, 5] | Body weight change vs control group [3, 6] | Histopathology of liver tissues ([3]; H&E) | Serum AST, ALT, ALP, TBIL, TBA, CREA, BUN vs control group [3] | Liver Olive Tail Moment [4] [μm] | Liver Tail DNA% [4] [%] | DNA damage in hepatocyte cells (comet shape) [4] | Death [3, 7] | Cell viability [1] | other results
COc1cccc2c1cc1c3c(cc4c(c32)OCO4)C(=O)N1 [AL I, aristolactam I] | > 256 | 37.1 | 0.66±0.21 | 3.12±0.33 | No DNA damage | No distinct nephrotoxicity or hepatotoxicity | no death | no distinct changes in body weight | No pathological changes | no significant difference | 0.74±0.29 | 3.26±0.52 | No DNA damage | – | – | Serum AST, ALT, ALP activity ([3]; 10 mg/kg): decreased AST, ALT, and ALP activity
O=C(O)c1cc2c(c3c1c([N+](=O)[O-])cc1ccccc13)OCO2 [AA II, aristolochic acid II] | > 800 | 306 | 0.78±0.30 | 3.08±0.25 | No DNA damage | No distinct nephrotoxicity or hepatotoxicity | – | – | – | no significant difference | 0.89±0.22 | 3.37±0.42 | No DNA damage | no death | – | Mice died ([3]; 40 mg/kg single oral dose, n = 10, death on day 8): 10%; Body weight change ([3]; 40 mg/kg, male and female mice, first 10 days): Slight weight loss
COc1cccc2c1cc([N+](=O)[O-])c1c(C(=O)O)cc3c(c12)OCO3 [AA I, aristolochic acid I] | – | – | 7.45 ± 1.94 | 15.39 ± 1.75 | evident comet shape | – | – | remarkable reduction of body weight | no corresponding pathological changes | different levels of changes in serum levels of TBIL, ALP, BUN, and CREA | 0.88±0.14 | 2.92±0.54 | no DNA damage | no death | – | IC50 ([1]; HK-2, 24 h): 197 µM; IC50 ([1]; HK-2, 48 h): 76.7 µM; Survival rate ([3]; 40 mg/kg single oral dose, 14 days, n = 10, deaths on days 4, 5 and 6): 30%; Histopathology of renal tissues ([3]; 40 mg/kg, H&E): Significant lesions
O=C(O)c1cc2c(c3c1c([N+](=O)[O-])cc1ccc(O)cc13)OCO2 [AA IIIa, aristolochic acid IIIa] | – | – | 0.61±0.16 | 2.60±0.69 | No DNA damage | No distinct nephrotoxicity or hepatotoxicity | no death | no distinct changes in body weight | – | no significant difference | 0.92±0.20 | 3.09±0.47 | No DNA damage | – | ≥ 50 % of control | –
CCOS(C)(=O)=O [EMS, ethyl methanesulfonate, reference compound] | – | – | 23.01±4.09 | 40.97±7.55 | significant comet tailing | – | – | – | – | – | 33.60±6.11 | 55.18±6.23 | significant comet tailing | – | – | –
COc1cc(O)cc2c1cc([N+](=O)[O-])c1c(C(=O)O)cc3c(c12)OCO3 [AA IVa, aristolochic acid IVa] | – | – | 0.57±0.22 | 2.80±0.99 | No DNA damage | No distinct nephrotoxicity or hepatotoxicity | no death | no distinct changes in body weight | – | no significant difference | 0.81±0.14 | 2.98±0.22 | No DNA damage | – | ≥ 50 % of control | Body weight change ([3]; 40 mg/kg, female mice, day 5, returned on day 7): drastic weight loss
